{"source": "patent US11472807B2", "about": "“Purine derivatives for use as medicament and for use in treating neurodegenerative or neuro-inflammatory disorders” (COMMISSARIAT À L'ENERGIE ATOMIQUE ET AUX ENERGIES …, priority 2017, dated 2022)", "key": {"TNF-α": {"test_system": "TNF-α", "assay": "TNF-α mRNA in OHSC (RT-qPCR)", "type": "cell-based, mice", "conditions": "50 μM, 10 days", "procedure": "FIG. 10. Plots illustrating the effect of Aftin-5 on relative mRNA expression levels of interleukin-1-beta (IL-1β; (A)), interleukin-6 (IL-6; (B)), TNF-alpha (TNFα; (C)) and interleukin-10 (IL-10; (D)) in organotypic hippocampal slice cultures (OHSC). OHSC culture media […] were replaced by incubation medium containing Aftin-5 (50 μM; A50) or vehicle (0.1% DMSO; Veh). 10 days later, total mRNA in lysate was isolated and purified, cDNAs were then synthesized from […] of total mRNA. cDNAs were amplified by quantitative RT-PCR and the relative expression of specific genes was normalized to the housekeeping gene HPRT1 (2^−ΔCt). Mann-Whitney tests were performed and ***p<0.001 indicates significant differences between Aftin-5 and control conditions. Data expressed as means+/−SEM from q=3 independent experiments with n=4-6 inserts/condition and 10 slices/insert. […]\n(§1) The impact of Aftin-5 on gene expression of different biomarkers was determined by measuring mRNA levels of selected BDNF, CREB, PS95, INS Receptor/IGF-1 receptor, IL-1β, IL-6 in OHSC treated chronically with Aftin-5 or in a total brain from mice exposed to Aftin-5 at either 8 or 30 mg/Kg. […] Threshold cycles (Ct) of target gene and cyclophilin A (Ppia−control housekeeping gene) were recorded and gene expression was calculated as 2^−ΔΔCt(ΔΔCt=ΔCttreated−ΔCtcontrol, ΔCt=Cttarget−CtPpia). […]"}, "in vitro": {"assay": "in vitro", "conditions": "rat", "quoted_text": "A 20% BSA gradient was used for isolation of capillaries. After a second enzymatic digestion, cells were plated in 75 cm^2 coated culture flasks in EBM medium completed by the EGM-2 MV Single Quots kit (Lonza, Basel, Switzerland). Cultures were maintained at 37° C. in a humidified 5% CO2 atmosphere for 5-6 days before being trypsinized and frozen.\nThe chambers containing human glial cells and brain endothelial cells were considered as the basolateral and apical compartment, respectively. The microplates were then incubated at 37° C. in a 5% CO2 atmosphere. Under these experimental conditions, brain endothelial cells formed a confluent monolayer within 15 days.\nAfter checking BBB integrity, Transwells® with BEC monolayers were transferred to new plates. T buffer (150 mM NaCl, 5.2 mM KCl, 2.2 mM CaCl2, 0.2 mM MgCl2, 6 mM NaHCO3, 2.8 mM glucose and 5 mM Hepes) was added 1.5 mL to the basal chamber (B) and 0.5 ml to the apical chamber (A). […] The Papp value was calculated as followed: Papp=dQ/dT×A×C0 (1) where dQ/dT: amount of drug transported per time-point; A: membrane surface area; Co: donor concentration at time-point 0. […] The mass balance was calculated as follows: R (%)=([(Ap+Bs)/A0]×100 (2) where Ap and Bs are the amount of tested compounds in the apical and basal compartments, respectively. A0 is the initial amount in the donor compartment."}, "CREB": {"test_system": "CREB", "assay": "CREB mRNA in OHSC (RT-qPCR)", "type": "cell-based", "conditions": "OHSCs from WT mice, 50 μM, 10 days", "procedure": "FIG. 15. Plots illustrating the effect of Aftin-5 on relative mRNA expression levels of Long Term Potentialisation (LTP) biomarkers, i.e CREB (A), PSD95 (B) and BDNF (C) in C57B16J OHSC mice treated chronically with Aftin-5. OHSC culture media of OHSC were replaced by incubation medium containing Aftin-5 (50 μM; A50) or vehicle (0.1% DMSO; Veh). 10 days later, total mRNA in lysate was isolated and purified, cDNAs were then synthesized from […] of total mRNA. cDNAs were amplified by quantitative RT-PCR and the relative expression of specific genes was normalized to the housekeeping gene HPRT1 (2^—ΔCt). […] Data expressed as means+/−SEM from q=3 independent experiments with n=4-6 inserts/condition and 10 slices/insert. […]\nThe impact of Aftin-5 on gene expression of different biomarkers was determined by measuring mRNA levels of selected BDNF, CREB, PS95, INS Receptor/IGF-1 receptor, IL-1β, IL-6 in OHSC treated chronically with Aftin-5 or in a total brain from mice exposed to Aftin-5 at either 8 or 30 mg/Kg. […] RNA concentration was measured spectrophotometrically at 260 nm in a NanoDrop 2000c (Thermo Scientific, Villebon-sur-Yvette, France) (sample A260 nm/A280 nm ratios over 1.8 indicated reduced genomic DNA contamination). cDNAs were synthesized from 0.5 μg of total RNA with RT^2 First Strand kit (Qiagen, Courtaboeuf, France) according to the manufacturer's protocol and stored at −80° C. […]"}, "[1]": {"test_system": "TNF-α, IL-1β and IL-6 mRNA", "assay": "Cytokine mRNA in OHSC from transgenic 3×Tg-AD mice (RT-qPCR)", "type": "cell-based, transgenic Tau mice (3×Tg-AD)", "conditions": "OHSC from transgenic mice overexpressing P-Tau, 50-150 μM, 10 days, vs vehicle", "procedure": "FIG. 11. Plots illustrating the effect of Aftin-5 mediated attenuation of TNF-α (A) and IL-1β (B) and IL-6 (C) in organotypic hippocampal slice cultures from wild type mice (C57BI/6J) and transgenic Tau mice (3×Tg-AD). 3 Tg organotypic hippocampal slice cultures media were replaced by incubation medium containing Aftin-5 at 50 μM (A50), 100 μM (A100) and 150 μM (A150) or vehicle (0.1% DMSO; Veh). After chronic treatment (10 days) total mRNA in lysate was isolated and purified, cDNAs were then synthesized from […] of total mRNA. cDNAs were amplified by quantitative RT-PCR and the relative expression of specific genes was normalized to the housekeeping gene HPRT1 (2^−ΔCt). […] Data expressed as means+/−SEM (n=2-6 wells/condition) from q=2 independent experiments with n=2-6 inserts/conditions and 10 slices/insert. […]\nas §1"}}, "data": [{"molecule": "CC[C@H](CO)Nc1nc(N(C)c2ccccc2)c2ncn(C(C)C)c2n1", "note": "[Aftin-5]", "values": [{"measurement": "TNF-α mRNA synthesis", "setting": "TNF-α", "value": "no changes"}, {"measurement": "Papp at 60 min, 10 μM", "setting": "in vitro", "value": "~35", "unit": "×10⁻⁶ cm/s"}, {"measurement": "CREB mRNA", "setting": "CREB", "value": "transcriptional upregulation"}, {"measurement": "cytokine-mRNA synthesis (TNF-α, IL-1β, IL-6)", "setting": "[1]", "value": "decreases"}]}]}
